From paper PMC11134608, “UBR5 forms ligand-dependent complexes on chromatin to regulate nuclear hormone receptor stability” (Molecular cell, 2023) come the findings set out here.

Assay [1] deals with UBR5-RARA. As to the kind of experiment: In vitro FLAG-UBR5 pull-down of His-tagged RARA. In kind it is binding, human. As to conditions: 50 μM ligand, anti-His western, 25 mM HEPES pH 7.4, 125 mM NaCl, 0.05% TWEEN-20. Here is the method:
12 μL of FLAG M2 slurry were equilibrated with binding buffer (25 mM HEPES pH 7.4, 125 mM NaCl, 0.05% TWEEN-20). The resin was pelleted and excess buffer removed. 60 μL of fresh binding buffer was re-added, followed by addition of 15 pmol (2.5 μL ofa6 μM solution) of purified FLAG-UBR5 protein and incubated on a rotating wheel at 4°C for 60–90 minutes. The resin was pelleted, excess buffer removed, and 150 μL fresh binding buffer (supplemented with 50 μM ligand of interest or DMSO) added, followed by 150 pmol protein (binding partner protein of interest) and incubated for another 60 minutes. The resin was pelleted, excess buffer removed and washed with 400 μL of binding buffer (supplemented with ligand of interest or DMSO), and this process was repeated three times. The resin was pelleted, excess buffer removed and 45 μL of binding buffer supplemented with 1 mg/mL 3xFLAG peptide was added to elute proteins over 30 minutes on a rotating wheel at room temperature. The resin was pelleted, and 40 μL of the supernatant was collected and mixed with 12 μL of 5xSDS gel loading buffer. 6 μL of these samples were applied to SDS-PAGE on a 4–20% gradient gel (Biorad). The gel was transferred to a nitrocellulose membrane using the Trans-Blot Turbo Transfer System (Biorad). Following blocking with 5% skim milk solution in TBST, primary antibodies targeting the NR proteins were added in TBST and incubated overnight at 4 °C. The following day, membranes were washed thrice with TBST buffer and incubated for 45 minutes with fluorescent secondary antibody (Invitrogen A11357), followed by three more washes with TBST. Imaging was performed on a Licor Odyssey system, scanned at 800 nm.

Assay [2] deals with UBR5-RARA/RXRA. As to the kind of experiment: In vitro FLAG-UBR5 pull-down of His-tagged RARA/RXRA heterodimer. In kind it is binding, human. As to conditions: 50 μM ligand, pull-down, anti-His western; 25 mM HEPES pH 7.4, 125 mM NaCl, 0.05% TWEEN-20.
Method: The resin was pelleted and excess buffer removed. 60 μL of fresh binding buffer was re-added, followed by addition of 15 pmol (2.5 μL ofa6 μM solution) of purified FLAG-UBR5 protein and incubated on a rotating wheel at 4°C for 60–90 minutes. The resin was pelleted, excess buffer removed, and 150 μL fresh binding buffer (supplemented with 50 μM ligand of interest or DMSO) added, followed by 150 pmol protein (binding partner protein of interest) and incubated for another 60 minutes. The resin was pelleted, excess buffer removed and washed with 400 μL of binding buffer (supplemented with ligand of interest or DMSO), and this process was repeated three times. The resin was pelleted, excess buffer removed and 45 μL of binding buffer supplemented with 1 mg/mL 3xFLAG peptide was added to elute proteins over 30 minutes on a rotating wheel at room temperature. The resin was pelleted, and 40 μL of the supernatant was collected and mixed with 12 μL of 5xSDS gel loading buffer. 6 μL of these samples were applied to SDS-PAGE on a 4–20% gradient gel (Biorad). The gel was transferred to a nitrocellulose membrane using the Trans-Blot Turbo Transfer System (Biorad). Following blocking with 5% skim milk solution in TBST, primary antibodies targeting the NR proteins were added in TBST and incubated overnight at 4 °C. […]
The subject of assay [3] is ATRA-induced gene expression in NB4 cells. As to the kind of experiment: RNA sequencing of NB4 cells. Format: cell-based, human. As to conditions: NB4, MG132 or DMSO, ATRA 0, 8, 24 h. On the procedure: Cell lines were expanded, treated with ligand, and incubated at 37C. Cells were pelleted by centrifugation for 5 minutes, washed with cold PBS, and RNA was isolated by RNeasy kit (Qiagen) per manufacturer’s instructions. RNA was sent to Novogene for library preparation and sequencing, or prepared for sequencing (NEBNext, New England Biolabs) and sequenced on an Illumina NextSeq 550 sequencer.
Paired-end reads were aligned to the hg38.p13[81],[82] reference genome with the STAR[83] (v5.2.7b) aligner as part of the RSEM[99] command line tool. Gene transcript abundance was further quantified from aligned fragments using RSEM to generate a gene-by-sample matrix of expected counts. Differential expression was tested, as with the ChIP-seq data, using the DESeq[88],[93]2 and ashr[94] pipeline, this time calculating sample-specific scale factor offset using the method of median-ratio as implemented in the R package EBSeq[100] (v1.36.0). For plotting in heatmaps, genes were selected based on ChIP-seq peak annotation and subset.

Assay [4] deals with RARA and UBR5. As to the kind of experiment: BRET assay of RARA and UBR5. Format: cell-based, human. As to conditions: ± 9-cis RA, n = 3. The source says:
Bioluminescence resonance energy transfer (BRET) experiments were done using the NanoBRET PPI kit (Promega, N1821) according to manufacturer’s instructions.

Assay [5] deals with RARA/RXRA heterodimer (pre-formed complex with fluorescein-labelled NCOA1 peptide). As to the kind of experiment: Fluorescence polarization, competitive reverse titration of unlabeled peptides. Format: binding, human. As to conditions: with ATRA; 10 nM tracer, 0.5 μM RARA/RXRA, competitor 0–85 μM; 20 mM HEPES pH 7.4, 110 mM NaCl; room temperature; variable slope fit; duplicates. Here is the method: Fluorescein-labelled NCOA1 peptide residues […] (Flc-[…]) was used as a fluorescent tracer as described previously.[71] Increasing amounts of RARA/RXRA heterodimer (0.1–26 μM final concentration) were mixed with tracer (10 nM final concentration) in a 384-well microplate (784076, Greiner) at room temperature. The interaction was measured in a final buffer containing 20 mM HEPES pH 7.4, 110 mM NaCl, 500 μM TCEP, 1% Glycerol, 0.1% (v/v) pluronic acid with or without 100 μM all-trans-retinoic acid. A PHERAstar FS microplate reader (BMG Labtech) equipped with a fluorescence polarization filter unit was used to determine changes in fluorescence polarization. The polarization units were converted to fraction bound, defined as (mPfree – mP) / (mPfree – mPbound), as described previously.[72] […]
A. RARAreporter degradation in HEK293cells withCRISPR-editedUBR5 deficientof itsHECTdomain inthepresence or absenceof ATRA (n=3 two-sided ttest).B. Ubiquitylation assayof a pseudo-primedRARA/RXRAsubstrate, generated as His-3Ub~RARA and His-3Ub~RXRA linearfusions in E.coli.Wild type UBR5 can rapidly branch and extend Ub chains on the substrate, however indicated mutants of the UBA domain severely hinder chain extension. […] Fluorescence polarization (FP) experiment showing forward titrationof RARA/RXRA intoa fluorescein-labelled NCOA1 peptide (residues 686-698). […]

Assay [6] has as its system UBR5-RARA. As to the kind of experiment: UBR5 pull-down competition with NCOA1. Format: binding, human. As to conditions: NCOA at 0.5, 5 and 10× molar excess relative to UBR5, with ATRA. From the text: Figure 2. UBR5 competes with nuclear coactivators for the conserved hydrophobic cleft of NRs (A) Schematic of RARA domain architecture; NTD, N-terminal domain; DBD, DNA-binding domain; LBD, ligand-binding domain. (B) Degradation of RARA reporters containing 4–5 surface-exposed alanine mutations per helix, relative to untreated (DMSO) (n = 3 two-sided t test). See Figure S2 for detailed amino acid substitutions. (C) Degradation of RARA reporters containing glutamate-substituted residues within the H3/H4 hydrophobic cleft. (n = 3 two-sided t test). […] FLAG-UBR5 (15 pmol) was pre-bound to a large excess of His-RARA in the presence of ATRA and excess RARA protein washed away. Increasing amounts of full-length NCOA1 protein were then added to outcompete the UBR5-RARA interaction. NCOA was titrated with a 0.5, 5, and 10× molar excess relative to UBR5. (F) Relative abundances in RARA-GFP IP-MS of NCOR1, NCOA1, and UBR5 normalized to RARA abundance following 0, 4, and 16 h of ATRA treatment.
12 μL of FLAG M2 slurry were equilibrated with binding buffer (25 mM HEPES pH 7.4, 125 mM NaCl, 0.05% TWEEN-20). The resin was pelleted and excess buffer removed. 60 μL of fresh binding buffer was re-added, followed by addition of 15 pmol (2.5 μL ofa6 μM solution) of purified FLAG-UBR5 protein and incubated on a rotating wheel at 4°C for 60–90 minutes. […]

Assay [7] has as its system 3Ub~RARA/RXRA substrate. As to the kind of experiment: In vitro ubiquitylation of pseudo-ubiquitylated RARA/RXRA. In kind it is biochemical, human. The source says:
Input UBR5 variants -50 RARA/RXRA (µM)[NCOA1 peptide] uM
250 NCOA1 peptide (fluorescein-labeled probe): 5-FAM-[…]
200 LxxLLs UBR5 peptides (unlabeled): […]
Unlabelled peptide (µM)UBR5 peptide (µM)
0.0 +RARA/RXRA + retinoic acid
H A-1 A-2 Name Expressed UBR5 construct […]
round kDa WT LxxA LxxA WT 1-2799 kDa Input Backg WT LxxAA-1 LxxAA-2 ∆ UBR ∆ tandem ∆ UBA 250 […]
Figure S5. Interaction ofUBR5with NRs and LxxLL motifs,Related to Figure 3
A. RARAreporter degradation in HEK293cells withCRISPR-editedUBR5 deficientof itsHECTdomain inthepresence or absenceof ATRA (n=3 two-sided ttest).B. Ubiquitylation assayof a pseudo-primedRARA/RXRAsubstrate, generated as His-3Ub~RARA and His-3Ub~RXRA linearfusions in E.coli.Wild type UBR5 can rapidly branch and extend Ub chains on the substrate, however indicated mutants of the UBA domain severely hinder chain extension. C. Fluorescence polarization (FP) experiment showing forward titrationof RARA/RXRA intoa fluorescein-labelled NCOA1 peptide (residues 686-698). […]
Fluorescence polarization experiments depicting competitive reverse titrationwith indicated peptides against a pre-formed complex of RARA/RXRA with a fluorescein-labelled peptide of NCOA1 (residues 686-698) in the presence of ATRA. Titrations were performed in duplicate and binding constants determined after converting fluorescence polarization values tofraction bound of originalcomplex. […]

Residues, ends and D or L forms follow the SMILES beside them. *: point of attachment. Cbz = O=C(OCc1ccccc1)*

On to `CC1=C(/C=C/C(C)=C\C=C\C(C)=C\C(=O)O)C(C)(C)CCC1` [9-cis RA, 9-cis-retinoic acid], for which the “binding of RARA to UBR5” value in assay [1] is listed as “robustly induced binding of RARA to UBR5”.
Regarding `CC1(C)CC=C(c2cnc3ccccc3c2)c2cc(C(=O)Nc3ccc(C(=O)O)cc3)ccc21` [BMS614], the “binding of RARA/RXRA to UBR5” value in assay [2] is “similarly hindered”. Further, the “binding of RARA to UBR5” value in assay [1] is “prevented complex formation”.
In the case of `CC(C)C[C@@H](C=O)NC(=O)[C@H](CC(C)C)NC(=O)[C@H](CC(C)C)NC(=O)OCc1ccccc1` [MG132] (Cbz-Leu-Leu-Leu-aldehyde), the “effect of proteasomal inhibition (MG132) on ATRA-induced transcription” value in assay [3] was “strongly decreased ATRA-induced transcription”.
`CC1=C(/C=C/C(C)=C\C=C\C(C)=C\C(=O)O)C(C)(C)CCC1` [RA]: the “RARA/UBR5 BRET luminescence” value in assay [4] is “exhibited more luminescence than controls”.
For the compound LQPYLRELLSAKD [UBR5 aa1098], the Kapp in assay [5] was 41.4 ± 2.8 µM.
Consider NCOA1: full-length NCOA1 protein, for which the “UBR5 binding to RARA in presence of excess NCOA1” value in assay [6] was “impaired by an excess of full-length NCOA1”.
On to RLDLLYRLLTATN [UBR5 aa1251], for which, in assay [5], the Kapp amounted to 3.1 ± 0.1 µM.
For the compound “UBR5^V196K: UBR5 with a substitution at the ubiquitin-binding interface”, in assay [7], the “processivity in ubiquitylation assay” value is recorded as “severely hindered processivity in ubiquitylation assays”.
Regarding “UBR5^Δ83–347: UBR5 lacking the UBA insertion entirely”, the “processivity in ubiquitylation assay” value in assay [7] is on record as “severely hindered processivity in ubiquitylation assays”.
